Values joined by “and” are separate entries in the source; they are usually repeats but may differ in a detail not shown here. Equal entries are not always repeated.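 Protocol summary: plate cells (96-well), add compound at 5 concentrations, incubate 48 h, interpolate endpoints linearly. The concentration for 50% growth inhibition is given as GI50. TGI: total growth inhibition.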

The test system of this experiment is MDA-MB-468 breast. As to the kind of experiment: NCI-60 cell line screen, 48 h.
Take `[N-]=[N+]=CC(=O)OCC(N)C(=O)O` (stereo unspecified): the GI50 is 1210 nM and the TGI amounted to 11100 nM.

For the molecule `CN1CCN(Cc2ccc(NC(=O)c3cncc(C#Cc4c(N)ncc5cc(F)ccc45)c3)cc2C(F)(F)F)CC1`, the GI50 is 6300 nM and the TGI was 15400 nM.

As for `CN1CCN(Cc2ccc(Nc3ncc(Cl)c(Nc4ccccc4S(=O)(=O)N(C)C)n3)cc2)CC1`, the GI50 is 52.5 nM and the TGI amounted to 268 nM.

Regarding `Cc1ccc(NC(=O)c2ccnc(N3CCCC3)c2)cc1-c1ccc(C(=O)NCC2CC2)cc1`, the GI50 was more than 25000 nM and the TGI was more than 25000 nM.

`CCOC(=O)c1c(Cl)c2c(n1Cc1cc(OC)cc(OC)c1)-c1oncc1CCC2`: the GI50 was 526 nM and the TGI was more than 100000 nM.

On to `Cc1ccc2sc3c(NCCCNCCO)nc4ccccc4c3c(=O)c2c1`, for which the GI50 is 1540 nM and the TGI was determined as 3160 nM.

For `C=C[C@]1(C)C=C2C(=O)[C@@]3(O)OC(=O)[C@@]4(CCCC(C)(C)[C@H]34)[C@@]2(O)CC1`, the GI50 was 414 nM and the TGI was determined as 2000 nM.

As to `COC(=O)Nc1nc2ccc(Oc3ccc(NC(=O)Nc4cccc(Cl)c4)cc3)cc2[nH]1`, the GI50 was 269 nM and the TGI worked out at 2200 nM.

With `CO[C@H](C(=O)N[C@@H](CCCCNC(=O)OCc1ccccc1)C(=O)OC(C)(C)C)[C@@H]1Cc2cc3cc(OC4CC(OC5CC(O)C(O)C(C)O5)C(O)C(C)O4)c(C)c(O)c3c(O)c2C(=O)[C@H]1OC1CC(OC2CC(OC3CC(C)(O)C(O)C(C)O3)C(O)C(C)O2)C(O)C(C)O1` (stereo partly specified), the GI50 was 764 nM and the TGI turned out to be 2920 nM.

For `CCNc1nc(N2CC(=O)Nc3cc(OC)ccc32)c2ccccc2n1`, the GI50 is 0.26 nM.

As to `Cn1cc(C2=C(c3c4n(c5ccccc35)CCC(CN)CC4)C(=O)NC2=O)c2ccccc21` (stereo unspecified), the GI50 is 3720 nM and the TGI was determined as 7510 nM.

Turning to `CC/C(=C(\CC)c1ccc(OCCN(CC)CC)cc1)c1ccc(OCCN(CC)CC)cc1`, the GI50 was 1590 nM and the TGI was 3640 nM.

As to `O=C(Cn1ccnc1[N+](=O)[O-])NCC(F)(F)C(F)(F)F`, the GI50 was more than 100000 nM and the TGI was more than 100000 nM.

`COc1ccc(F)cc1C(=O)c1cnc(NC2CCN(S(C)(=O)=O)CC2)nc1N`: the GI50 was 3950 nM and the TGI was 9870 nM.

As to `CN(C)CC1CCn2c(c(C3=C(c4cn(C)c5ccccc45)C(=O)NC3=O)c3ccccc32)C1` (stereo unspecified), the GI50 is 3510 nM and the TGI was 7570 nM.

As for `CCCCCc1ccc(S(=O)(=O)Nc2cc(-c3csc(NC(=O)CN4CCN(C)CC4)n3)ccc2N2CCN(C)CC2)cc1`, the GI50 is 901 nM and the TGI is 2020 nM.

Regarding `COc1cccc2c1c1nc3cc(C)c(C)cc3nc1n2CCN(C)C`, the GI50 was 1540 nM and the TGI stood at 4140 nM.

As for `Cc1ccc(S(=O)(=O)n2cc(C(=O)C(=O)Nc3ccncc3)c3ccccc32)cc1`, the GI50 is 1100 nM and the TGI is 9530 nM.

`O=C(O)CCC1CCC(c2cc(F)ccc2F)(S(=O)(=O)c2ccc(Cl)cc2)CC1` (stereo unspecified): the GI50 is 13100 nM and 45300 nM; the TGI was 52500 nM and > 100000 nM.

Regarding `COc1cc(C(=O)n2nc(N3CCN(C)CC3)c3cc(N)ccc32)cc(OC)c1OC`, the GI50 is 2970 nM and the TGI is 9380 nM.

On to `CCN1CCN(S(=O)(=O)c2oc(-c3ccc(Cl)cc3)nc2C#N)CC1`, for which the GI50 is 2210 nM and the TGI came out at 5160 nM.

With `CCCCCCCCCCCCCCCCOCCCOP(=O)(O)C1CCCN(O)C1=O` (stereo unspecified), the GI50 was 2570 nM and the TGI stood at 9930 nM.

`CO[C@H]1CC[C@@]2(C)C(=CC[C@H]3[C@@H]4C[C@H](O)C[C@@]4(C)CC[C@@H]32)C1`: the GI50 is 2410 nM and the TGI was determined as 9070 nM.

For `CC[C@H](C)C(=O)O[C@H]1CCC=C2C=C[C@H](C)C(CCC3C[C@@H](O)CC(=O)O3)[C@H]21` (stereo partly specified), the GI50 was 5850 nM and the TGI was found to be 30800 nM.

Take `COC(=O)[C@@H](C)C[C@H](Cc1ccccc1)NC(=O)c1csc([C@@H](C[C@H](C(C)C)N(C)C(=O)[C@@H](NC(=O)[C@H]2CCCCN2C)C(C)C)OC(C)=O)n1`: the TGI was more than 25000 nM.

`NC(=O)Oc1cc(OC(N)=O)cc(N(CCCl)CCCl)c1`: the GI50 is 1710 nM and the TGI was found to be 13000 nM.

For the molecule `COC(=O)c1c2c(c(C)[n+]([O-])c1C)C(=O)C(NCc1ccc(F)c(F)c1)=CC2=O`, the GI50 was 1160 nM and the TGI came out at 3070 nM.

Regarding `COc1cnc2c(c1)C(=O)c1c-2n(CCCN2CCN(C)CC2)c(=O)c2cc(Cl)ccc12`, the GI50 is 1190 nM and the TGI is 14800 nM.

For `O=C1/C(=C/c2ccc(Cl)cc2)CN(C(=O)C(Cl)Cl)C/C1=C\c1ccc(Cl)cc1`, the GI50 is 182 nM and the TGI was determined as 376 nM.

In the case of `Cc1cccc(N=C2c3cc([N+](=O)[O-])ccc3-c3c2cc([N+](=O)[O-])cc3[N+](=O)[O-])c1`, the GI50 was 1670 nM and the TGI came out at 3320 nM.

Regarding `O=C(Nc1ccc(Br)c(Cl)c1)c1cc(F)ccc1O`, the GI50 is 942 nM and the TGI stood at 3350 nM.

`COc1ccc(Nc2ccnc(NCCCNc3ccnc4cc(Cl)ccc34)n2)cc1`: the GI50 is 871 nM and the TGI came out at 2420 nM.

In the case of `O=C1/C(=C/C(Cl)=C/c2ccccc2)SC(=S)N1CCc1ccc(O)cc1`, the GI50 is 1890 nM and the TGI was 6040 nM.

As to `C#C[C@@]1(O)[C@@H](CO)O[C@@H](n2cc(F)c3c(N)ncnc32)[C@@H]1O`, the GI50 is 301 nM and the TGI worked out at 1530 nM.

On to `Cc1ccc(C(=O)NC2CCCCC2)cc1-c1ccc(C(=O)NCC2CC2)cc1`, for which the GI50 is more than 23600 nM and the TGI is more than 25000 nM.

As for `COc1cc2c3c(n(C4CCNCC4)c(=O)c2cc1OC)-c1cc2c(cc1C3=O)OCO2`, the GI50 was 455 nM and the TGI came to 1850 nM.

Turning to `Clc1ccc(CO/N=C(\Cn2ccnc2)c2ccc(Cl)cc2Cl)c(Cl)c1`, the GI50 was 1590 nM and the TGI was 3060 nM.

In the case of `C/C(=C\c1ccn(-c2ccc(N)cc2)n1)[C@@H]1C[C@@H]2O[C@]2(C)CCC[C@H](C)[C@H](O)[C@@H](C)C(=O)C(C)(C)[C@@H](O)CC(=O)O1`, the GI50 is 39.1 nM and the TGI was found to be 1190 nM.

As for `COc1ccc(-c2nc(-c3nc4cc(C)c(C)cc4[nH]3)cc3c2[nH]c2ccccc23)cc1`, the GI50 is 1990 nM and the TGI was 4780 nM.

For the origin of these results see PubChem BioAssay (NCI).
